Measured values reported in patent publication US20060014940A1, “Cloning and characterization of slc26a6, slc26a1, and slc26a2 anion exchangers” (priority 2002, published 2006).

Legend:
mouse SLC26A6b [1] = target: T1, mouse SLC26A6b (Mus musculus, UniProt Q8CIW6, R572P); experiment: Radiolabelled anion uptake/exchange in Xenopus oocytes expressing mouse SLC26A6b; format: cell-based; details: for cis-inhibition of SO4 2− transport / cis-inhibition of Cl−—Cl− exchange: 25 mM of the anion; for cis-inhibition of SO4 2− transport: 35SO4 uptake one hour (FIG. 7B); for cis-inhibition of Cl−—Cl− exchange: 36Cl− uptake one hour (FIG. 7A); for exchange of SO4 2− with extracellular anion (trans-stimulation of 35SO4 efflux): 10 mM of the anion, 30 minutes (FIG. 7C); for 36Cl− uptake: 8.3 mM 36Cl
T1 construct: Full-length mouse SLC26A6b and SLC26A 1 cDNAs were cloned into the Xenopus expression vector pGEMHE; expressed in transfected cells; host or cells: Xenopus laevis oocytes injected with in vitro transcribed cRNA (pGEMHE)
T1 sequence (Q8CIW6 24-758 R572P limits assumed): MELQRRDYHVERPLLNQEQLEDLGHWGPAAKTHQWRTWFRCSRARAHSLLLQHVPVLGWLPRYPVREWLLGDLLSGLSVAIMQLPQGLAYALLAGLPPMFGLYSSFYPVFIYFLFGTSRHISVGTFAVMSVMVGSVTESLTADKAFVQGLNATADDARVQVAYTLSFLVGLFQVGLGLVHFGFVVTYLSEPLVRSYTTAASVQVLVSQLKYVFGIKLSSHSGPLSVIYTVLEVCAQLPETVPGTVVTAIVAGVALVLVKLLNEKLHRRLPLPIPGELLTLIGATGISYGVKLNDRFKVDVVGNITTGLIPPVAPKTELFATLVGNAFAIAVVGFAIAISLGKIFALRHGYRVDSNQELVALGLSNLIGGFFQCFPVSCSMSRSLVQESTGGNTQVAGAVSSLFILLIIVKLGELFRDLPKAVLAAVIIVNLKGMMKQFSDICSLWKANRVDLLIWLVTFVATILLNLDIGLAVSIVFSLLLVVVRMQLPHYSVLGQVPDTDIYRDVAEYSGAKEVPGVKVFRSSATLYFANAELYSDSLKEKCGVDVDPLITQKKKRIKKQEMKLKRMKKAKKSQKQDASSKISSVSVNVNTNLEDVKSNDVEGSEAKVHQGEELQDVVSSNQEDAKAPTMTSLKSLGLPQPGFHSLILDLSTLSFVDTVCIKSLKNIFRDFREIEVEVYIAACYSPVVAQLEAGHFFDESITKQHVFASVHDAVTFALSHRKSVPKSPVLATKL
Protocol: (§1) Full-length mouse SLC26A6b and SLC26A 1 cDNAs were cloned into the Xenopus expression vector pGEMHE (Liman et al., 1992). The SLC26A6 and SLC26A1 expression constructs were linearized, and cRNA was transcribed in vitro using T7 RNA polymerase and a […] MMACHINE® transcription kit (Ambion, Inc. of Austin, Tex., United States of America). Defolliculated oocytes were injected with 25 nl to 50 nl of water or with a solution containing cRNA at a concentration of 0.5 μg/μl (12.5 ng to 25 ng per oocyte) using a Nanoliter-2000 injector (WPI Instruments of Sarasota, Fla., United States of America). Oocytes were incubated at 17° C. in 50% Leibovitz's L-15 media supplemented with penicillin/streptomycin (1000 units/ml) and glutamine for 2-3 days for uptake assays.
(§2) For sulphate uptake assays, oocytes were pre-incubated for 20 minutes in chloride-free uptake medium (100 mM NMDG gluconate, 2 mM potassium gluconate, 1 mM calcium gluconate, 1 mM magnesium gluconate, 10 mM HEPES-Tris, pH 6.0 or pH 7.5 as indicated), followed by a 60-minute period for uptake in the same medium supplemented with 1 mM K2^35SO4 (40 μCi/ml). The cells were then washed three times in uptake buffer with 5 mM cold K2SO4 to remove tracer activity in the extracellular fluid. The oocytes were dissolved individually in 10% SDS, and tracer activity was determined by scintillation counting. Uptake of chloride, formate, and oxalate was assayed using the same chloride-free uptake solutions, substituting 8.3 mM ^36Cl, 500 μM [^14C]oxalate, or 50 μM [^14C]formate for labeled sulphate.
(§3) For sulphate exchange and cis-inhibition experiments, the concentration of NMDG-gluconate in the uptake solution was adjusted to maintain isotonic osmolality, which was confirmed experimentally using a FISKE® osmometer (Fiske Associates, Inc. of Bethel, Conn., United States of America).

human SLC26A6 = system: human SLC26A6
Source text: FIG. 13 depicts chloride uptake in Xenopus oocytes expressing Xenopus xPDS2, human SLC26A3 (DRA), mouse Slc26a6, and human SLC26A6, with extracellular pH of 7.5 (open bars) or 6.0 (dark fill).
FIG. 15 depicts sulphate transport mediated by Xenopus oocytes expressing human SLC26A6, at varying concentrations of extracellular SO4^2− and constant amounts of tracer ^35SO4^2−.
A feature of the mammalian SLC26 gene family is relatively low conservation between orthologs in mouse and man; the percent amino acid identity ranges from a low of 76% (SLC26A8) to a high of 90% (SLC26A9), versus the reported median of 86% for mouse and human orthologous genes. Makalowski, W. & Boguski, 1998. This sequence divergence is reflected in functional variation, which can be exploited for structure-function analysis.

xPDS3 = experiment: Anion transport in Xenopus oocytes expressing xPDS3; format: cell-based, Xenopus laevis
Source text: (§4) One or more of these xPDS genes likely corresponds to the Xenopus descendant of mammalian SLC26A3.

xPDS1 = experiment: Anion transport in Xenopus oocytes expressing xPDS1; format: cell-based, Xenopus laevis
Source text: as §4

xSLC26A6 = details: FIG. 17
Source text: as §4

mouse SLC26A2 = mouse SLC26A2 (Mus musculus, UniProt Q62273)
Chain of mouse SLC26A2 (Q62273 whole entry): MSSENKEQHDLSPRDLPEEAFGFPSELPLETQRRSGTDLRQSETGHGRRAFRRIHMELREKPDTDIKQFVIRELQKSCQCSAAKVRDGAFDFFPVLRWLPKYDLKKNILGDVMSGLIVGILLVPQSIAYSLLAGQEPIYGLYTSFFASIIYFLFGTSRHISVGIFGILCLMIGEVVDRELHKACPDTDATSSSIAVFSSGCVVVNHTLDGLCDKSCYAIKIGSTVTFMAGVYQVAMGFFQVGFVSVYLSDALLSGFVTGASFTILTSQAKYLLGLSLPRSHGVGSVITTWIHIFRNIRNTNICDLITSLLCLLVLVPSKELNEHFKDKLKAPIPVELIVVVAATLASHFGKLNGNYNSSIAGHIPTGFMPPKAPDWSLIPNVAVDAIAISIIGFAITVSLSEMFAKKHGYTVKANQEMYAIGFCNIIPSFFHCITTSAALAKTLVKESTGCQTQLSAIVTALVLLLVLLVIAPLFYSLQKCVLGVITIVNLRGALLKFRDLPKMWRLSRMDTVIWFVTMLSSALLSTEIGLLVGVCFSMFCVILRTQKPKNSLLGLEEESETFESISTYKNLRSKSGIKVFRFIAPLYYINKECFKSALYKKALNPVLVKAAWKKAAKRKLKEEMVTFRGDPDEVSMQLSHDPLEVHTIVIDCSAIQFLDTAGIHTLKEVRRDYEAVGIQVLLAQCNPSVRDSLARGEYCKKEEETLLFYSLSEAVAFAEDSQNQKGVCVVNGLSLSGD
Protocol: as §2

xPDS2 = experiment: Anion transport in Xenopus oocytes expressing xPDS2; format: cell-based, Xenopus laevis
Source text: as §4

mouse SLC26A1 = target: T2, mouse SLC26A1 (Mus musculus, UniProt P58735, C691Y); experiment: Radiolabelled anion uptake in Xenopus oocytes expressing mouse SLC26A1; format: cell-based; details: for effect of extracellular anion on SO4 2− transport via SLC26A1: 25 mM of the anion (FIG. 9A, 6C); for transport via SLC26A1: FIG. 6B, FIG. 8B
T2 construct: Full-length mouse SLC26A6b and SLC26A 1 cDNAs were cloned into the Xenopus expression vector pGEMHE; expressed in transfected cells; host or cells: Xenopus laevis oocytes injected with in vitro transcribed cRNA (pGEMHE)
T2 sequence (P58735 1-704 C691Y): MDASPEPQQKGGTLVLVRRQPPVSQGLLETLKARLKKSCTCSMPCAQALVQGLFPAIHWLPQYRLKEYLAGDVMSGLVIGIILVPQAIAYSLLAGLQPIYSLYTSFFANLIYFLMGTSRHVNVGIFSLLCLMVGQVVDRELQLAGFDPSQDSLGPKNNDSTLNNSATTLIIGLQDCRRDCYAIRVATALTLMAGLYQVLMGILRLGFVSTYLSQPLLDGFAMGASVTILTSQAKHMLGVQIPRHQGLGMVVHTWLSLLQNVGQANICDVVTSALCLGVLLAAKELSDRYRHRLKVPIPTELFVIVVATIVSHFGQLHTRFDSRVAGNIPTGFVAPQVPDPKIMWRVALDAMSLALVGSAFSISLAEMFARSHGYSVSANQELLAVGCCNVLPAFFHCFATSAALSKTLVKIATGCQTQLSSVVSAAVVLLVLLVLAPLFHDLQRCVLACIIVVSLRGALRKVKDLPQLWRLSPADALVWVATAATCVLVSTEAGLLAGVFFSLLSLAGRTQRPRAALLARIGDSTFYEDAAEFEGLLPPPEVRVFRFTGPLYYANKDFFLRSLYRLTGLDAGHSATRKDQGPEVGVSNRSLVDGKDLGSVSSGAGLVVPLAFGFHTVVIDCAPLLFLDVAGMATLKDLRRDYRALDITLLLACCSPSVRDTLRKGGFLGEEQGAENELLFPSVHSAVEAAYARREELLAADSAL
Protocol: as §1, §2, §3

mouse SLC26A6b [2] = target: T1, mouse SLC26A6b; experiment: Radiolabelled anion uptake/exchange in Xenopus oocytes expressing mouse SLC26A6b; format: cell-based; details: pH 7.4; DIDS 1 mM (FIG. 6A)
rat SLC26A1 = rat SLC26A1 (Rattus norvegicus, UniProt P45380); details: Satoh et al., 1998; cited from earlier work
Chain of rat SLC26A1 (P45380 whole entry): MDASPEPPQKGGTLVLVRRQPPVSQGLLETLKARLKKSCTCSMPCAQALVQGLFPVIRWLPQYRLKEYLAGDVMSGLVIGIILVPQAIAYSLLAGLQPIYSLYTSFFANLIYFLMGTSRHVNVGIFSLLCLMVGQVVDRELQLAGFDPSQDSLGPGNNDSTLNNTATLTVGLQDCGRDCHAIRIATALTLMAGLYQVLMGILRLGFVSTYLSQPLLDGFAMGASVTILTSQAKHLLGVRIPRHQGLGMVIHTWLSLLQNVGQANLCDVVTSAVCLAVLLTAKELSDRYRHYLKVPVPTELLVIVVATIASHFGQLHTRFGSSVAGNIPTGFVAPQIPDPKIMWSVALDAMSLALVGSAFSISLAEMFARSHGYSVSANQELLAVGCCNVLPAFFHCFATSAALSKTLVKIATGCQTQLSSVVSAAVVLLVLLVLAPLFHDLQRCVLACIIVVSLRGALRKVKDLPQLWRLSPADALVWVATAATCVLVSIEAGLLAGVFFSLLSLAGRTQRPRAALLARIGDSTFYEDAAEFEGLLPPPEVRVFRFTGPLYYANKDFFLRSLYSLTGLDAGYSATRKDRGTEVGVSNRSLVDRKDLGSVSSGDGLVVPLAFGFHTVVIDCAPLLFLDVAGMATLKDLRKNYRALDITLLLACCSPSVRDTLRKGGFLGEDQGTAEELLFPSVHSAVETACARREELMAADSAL

SLC26A1 = SLC26A1 (Rattus norvegicus, UniProt P45380); details: Markovich & James, 1999; cited from earlier work
Chain of SLC26A1 (P45380 whole entry): as above

## Br [Br^−]
Mouse SLC26A6b [1]
  cis-inhibition of SO4 2− transport: cis-inhibitory
  cis-inhibition of Cl−—Cl− exchange: cis-inhibitory

## Cl [Cl^−, chloride]
Human SLC26A6; FIG. 13
  Cl− transport: clearly transports
xPDS3; FIG. 17
  Cl− transport: robust
xPDS1; FIG. 17
  Cl− transport: robust
xSLC26A6
  Cl− transport: robust
Mouse SLC26A2; 25 mM Cl− (FIG. 10B)
  effect of extracellular Cl− on 35SO4 2− uptake: significantly inhibited
xPDS2; FIG. 17
  Cl− transport: robust
Mouse SLC26A1
  effect of extracellular anion on SO4 2− transport via SLC26A1: much higher
  transport via SLC26A1: not transported
Mouse SLC26A1; presence or absence of 25 mM SO4 2−
  Cl−—Cl− exchange: minimal
Mouse SLC26A6b [1]
  exchange of SO4 2− with extracellular anion (trans-stimulation of 35SO4 efflux): clearly mediated exchange
Mouse SLC26A6b [1]; pH 6.0
  36Cl− uptake: 4193±109 pmol/oocyte/hour
Mouse SLC26A6b [1]; pH 7.4
  36Cl− uptake: 4345±243 pmol/oocyte/hour

## O=S(=O)(O)c1cc(N=C=S)ccc1C=Cc1ccc(N=C=S)cc1S(=O)(=O)O [DIDS, 4,4′-diisothiocyanatostilbene-2,2′-disulfonic acid]
Mouse SLC26A6b [2]
  sulphate uptake, sensitivity to DIDS: 301±24 pmol/oocyte/hour
Mouse SLC26A6b [1]; pH 6.0, DIDS 1 mM (FIG. 6A)
  sulphate uptake, sensitivity to DIDS: 101±10 pmol/oocyte/hour

## O=C(O)O [HCO3^−, bicarbonate]
Rat SLC26A1
  activation of SO4 2− uptake: does not activate

## I [I^−, iodide]
Mouse SLC26A6b [1]
  cis-inhibition of SO4 2− transport: cis-inhibitory
  cis-inhibition of Cl−—Cl− exchange: cis-inhibitory

## O=CO [formate]
Mouse SLC26A1
  effect of extracellular anion on SO4 2− transport via SLC26A1: activate
  transport via SLC26A1: not transported
Mouse SLC26A1; SLC26A1-injected oocytes
  formate uptake: 7 pmol/oocyte/h
Mouse SLC26A6b [1]; 50 μM [14C]formate (FIG. 8B)
  formate uptake: 45±5 pmol/oocyte/hour
Mouse SLC26A6b [1]
  exchange of SO4 2− with extracellular anion (trans-stimulation of 35SO4 efflux): clearly mediated exchange
  cis-inhibition of Cl−—Cl− exchange: significantly inhibited

## CC(O)C(=O)O (stereo not drawn) [lactate]
Mouse SLC26A1
  effect of extracellular anion on SO4 2− transport via SLC26A1: activate
Mouse SLC26A6b [1]
  cis-inhibition of Cl−—Cl− exchange: not lactate significantly inhibited

## O=S(=O)(O)O [sulphate]
Human SLC26A6; human SLC26A6, increasing extracellular SO4 2− (FIG. 15)
  absolute rate of SO4 2− transport: ~200 pmol/oocyte/hr
xPDS3
  SO4 2− transport: none of the xPDS clones transport
xPDS1
  SO4 2− transport: none of the xPDS clones transport
Mouse SLC26A2; absence of extracellular Cl− (FIG. 10A)
  35SO4 2− uptake: robust
Mouse SLC26A2; pH 6.0 versus pH 7.4 (FIG. 10A)
  35SO4 2− uptake at pH 6.0: increased significantly
xPDS2
  SO4 2− transport: none of the xPDS clones transport
Mouse SLC26A1
  effect of extracellular anion on SO4 2− transport via SLC26A1: strongly cis-inhibitory
Mouse SLC26A1; SLC26A1-injected oocytes (FIG. 6A)
  SO4 2− uptake: 72±2 pmol/oocyte/h
Mouse SLC26A6b [1]
  exchange of SO4 2− with extracellular anion (trans-stimulation of 35SO4 efflux): clearly mediated exchange
  cis-inhibition of Cl−—Cl− exchange: significantly inhibited
Mouse SLC26A6b [1]; SLC26A6b-injected oocytes
  sulphate uptake at pH 7.4 versus pH 6.0: not significantly altered
Mouse SLC26A6b [1]; SLC26A6b-injected oocytes, Na+-free
  sulphate uptake independent of Na+: 652±57 pmol/oocyte/hour
Mouse SLC26A6b [1]; SLC26A6b-injected oocytes, pH 7.4, Cl−-free medium, 1 mM 35SO4
  sulphate uptake independent of Cl−: 602±0 pmol/oocyte/hour
Mouse SLC26A6b [1]; mouse Slc26a6, increasing extracellular SO4 2− (FIG. 14)
  absolute rate of SO4 2− transport: ~4,000 pmol/oocyte/hr

## mercury
SLC26A1
  effect on maximal sulphate transport via SLC26A1: strongly inhibited
